Test results published in publication PMC9964390, “Design, Synthesis and Phenotypic Profiling of Simplified Gedatolisib Analogues” (Pharmaceuticals, 2023).
Values after ≈ are worked out from the molar mass of the structure shown. Like-named read-outs stand apart in the source and are kept apart here.

Experiments:
[1] = tested on: PC-3; experiment: MTT cell viability assay; format: cell-based; settings: Homo sapiens, PC-3, 72 h MTT; for CC50: 95% confidence interval in brackets; for Emax: read-out: Emax (maximum effect at maximum concentration used)
Protocol: (§1) For the evaluation of cellular cytotoxicity in cancer cell lines, the compounds were tested at concentrations ranging from 0.00003 μM to 150 μM. Immortalized cancer cells were selected: PC-3 (PTEN-mutated prostate adenocarcinoma), MCF-7 (PI3KCA-mutated breast carcinoma), K562 (P53-mutated chronic myeloid leukemia), CCRF-CEM (acute lymphoblastic leukemia with mutation in PTEN) and MOLT-4 (acute lymphoblastic leukemia with mutation in PI3KR1/PTEN). Peripheral blood mononuclear cells (PBMCs) were used to determine the cytotoxic selectivity index (SI). All immortalized cells were cultured in RPMI 1640 medium with 10% (v/v) FBS, streptomycin + penicillin, at 37 °C in a humidified incubator containing 5% CO2.
(§2) Cell viability was assessed by the MTT assay. The lines selected for this study were plated according to their respective densities, which ranged from 3 × 10^4 to 4 × 10^4 cells per well. Subsequently, they were treated with test compounds at different concentrations (0.00003 μM to 150 μM), gedatolisib and GSK-1059615.
(§3) After incubation, the plates are centrifuged at 440× g for 10 min. Then, 110 μL of the supernatant was withdrawn and each well received 10μL of the MTT solution. The plate was again incubated in an oven at 37 °C and 5% CO2 for 3 to 4 h. At the end of the incubation time, 100 μL of SDS-HCL detergent was added to solubilize the formazan crystals. The plate was shaken on an automatic overnight shaker and then read at a wavelength of 595 nm on the Molecular Devices Spectramax M5 plate reader.

[2] = tested on: K562; experiment: MTT cell viability assay; format: cell-based; settings: Homo sapiens, K562, 72 h MTT; for CC50: 95% confidence interval in brackets; for Emax: read-out: Emax (maximum effect at maximum concentration used)
Protocol: as §1, §2, §3

[3] = tested on: MCF7; experiment: MTT cell viability assay; format: cell-based; settings: Homo sapiens, MCF7, 72 h MTT; for CC50: 95% confidence interval in brackets; for Emax: read-out: Emax (maximum effect at maximum concentration used)
Protocol: as §1, §2, §3

[4] = tested on: CCRF-CEM; experiment: MTT cell viability assay; format: cell-based, human; settings: Homo sapiens, 72 h MTT; for CC50: 95% confidence interval in brackets; for Emax: read-out: Emax (maximum effect at maximum concentration used)
Protocol: as §1, §2, §3

[5] = tested on: MOLT-4; experiment: MTT cell viability assay; format: cell-based, human; settings: Homo sapiens, MOLT-4, 72 h MTT; for CC50: 95% confidence interval in brackets; for Emax: read-out: Emax (maximum effect at maximum concentration used)
Protocol: as §1, §2, §3

[6] = pH-dependent aqueous solubility (UV spectrophotometry); format: physicochemical; settings: aqueous buffer, thermodynamic from solid, 37 °C
Protocol: A stock solution of the target compound was prepared by dissolving 1 mg in methanol, and the wavelength of greatest absorption of each compound was obtained by scanning between wavelengths from 200 nm to 500 nm. Six dilutions were prepared from the stock solution and the absorbance reading in the UV spectrophotometer (SpectraMax M5, Molecular Devices, USA). The calibration curve with linear regression was created with the values obtained, and the solubility test was measured by correlating the concentration with the absorbance obtained by ultraviolet. Each compound was added in excess at phosphate buffer solution pH 5.8 and 7.4 to obtain a supersaturated solution that was kept under stirring for 4 h at 37 °C and then was filtered through a 0.45 µm filter for reading at the corresponding wavelengths. The solubility was determined through the equation of the straight line obtained by the linear regression of the calibration curve of the compounds [24, 25].

[7] = tested on: PC-3, MCF7, K562, CCRF-CEM and MOLT-4; experiment: MTT single-concentration cytotoxicity screening; format: cell-based, human; settings: for solubility in the culture medium: during screening at 30 μM; for cytotoxic activity at screening concentration: single concentration 1 μM; for cytotoxic effect on leukemia cell lines at single concentration: single concentration 30 μM, reduction in cell viability ≥ 50% selected for CC50
Protocol: In a first approach, the assay was validated with two standard drugs: gedatolisib and GSK-1059615.
After understanding the response profile of the selected cell lines to the treatment with gedatolisib and GSK-1059615, we investigated the cytotoxic activity of compounds 5a-f at a single concentration (30 μM). […] During the experiments, compounds 5a (LASSBio-2250), 5b (LASSBio-2251) and 9 (CAS-942789959) were insoluble and precipitated on the culture medium. Therefore, they were evaluated also at the screening concentration of 1 μM.
as §2, §3

[8] = tested on: CCRF-CEM cell line; experiment: Muse Cell Cycle Kit; format: cell-based, human; settings: 48 h
Protocol: The Guava Muse Luminex® Cell Cycle Kit (catalog n^o MCH100106, Luminex) contains the DNA marker propidium iodide (PI) and RNAse A to avoid nonspecific labelling.
After 48 h of incubation in an incubator at 37 °C with 5% CO2, 1 mL of the MOLT-4 cell solution and 500 µL of the CCRF-CEM cell solution, contained in the wells, were transferred to Eppendorf tubes and centrifuged at 300× g for 5 min. The volumes used ensured that the cell density remained within the recommended range (1 × 10^6 to 4 × 10^6 cells/mL) at the end of the 48 h incubation period.
The supernatant was discarded, and the pellet formed was resuspended in 1 mL of saline PBS, homogenised, and centrifuged at 300× g for 5 min. The formed pellet was resuspended in residual PBS by homogenization. To fix cellular events, 1 mL of ice-cold 70% alcohol was added dropwise into the tubes and vortexed at medium speed. The samples were incubated, before staining, for at least 3 h at −20 °C.
At the end of the incubation time at −20 °C, the samples were centrifuged at 300× g for 5 min, and then the supernatant was discarded and resuspended in 250 µL of PBS. The samples were again centrifuged at 300× g for 5 min and the supernatant discarded, which constituted the washing step. The pellet formed was resuspended in 200 µL of the Guava Muse Luminex® Cell Cycle, and the tubes were incubated for 30 min at room temperature, away from light.
After incubation, the samples were read in Guava Muse Luminex®, and the data with the histograms generated, which contain information on the percentage of the different phases of the cell cycle, were analysed in the statistical program Prism6. This methodology was performed in duplicate of three independent experiments.

[9] = phosphate buffer pH 5.8 (duodenum), read-out: Solubility pH 5.8
[10] = phosphate buffer pH 7.4 (plasma), read-out: Solubility pH 7.4

O=C1NC(=O)/C(=C/c2ccc3nccc(-c4ccncc4)c3c2)S1 [GSK-1059615, reference compound]
CC50 [1]: 6.78 µM
Emax [1]: 67%
CC50 [2]: 1.82 µM
Emax [2]: 84%
CC50 [3]: 0.55 µM
Emax [3]: 80%
CC50 [4]: 0.43 µM
Emax [4]: 93%
CC50 [5]: 0.63 µM
Emax [5]: 92%

c1ccc(N2CCN(c3nc(N4CCOCC4)nc(N4CCSCC4)n3)CC2)cc1 [5a, 4-(4-(4-Phenylpiperazin-1-yl)-6-thiomorpholino-1,3,5-triazin-2-yl)morpholine]
melting point: 170 °C
solubility at 4 h [6, 9]: 0.52 µM (≈ 0.222 µg/mL)
solubility at 4 h [6, 10]: 2.88 µM (≈ 1.23 µg/mL)
solubility in the culture medium [7]: insoluble
cytotoxic activity at screening concentration [7]: inactive

OCCN1CCN(c2nc(N3CCOCC3)nc(N3CCN(c4ccccc4)CC3)n2)CC1 [5e, 2-(4-(4-Morpholino-6-(4-phenylpiperazin-1-yl)-1,3,5-triazin-2-yl)piperazin-1-yl)ethan-1-ol]
melting point: 92 °C
solubility at 4 h [6, 9]: 31.2 µM (≈ 14.2 µg/mL)
solubility at 4 h [6, 10]: 49.1 µM (≈ 22.3 µg/mL)

COc1cccc2c1C(=O)c1c(O)c3c(c(O)c1C2=O)C[C@@](O)(C(=O)CO)C[C@@H]3O[C@H]1C[C@H](N)[C@H](O)[C@H](C)O1 [doxorubicin]
action on the cell cycle ([8]; 0.5 µM): nonspecific action on the cell cycle

c1ccc(N2CCN(c3nc(N4CCOCC4)nc(N4CCOCC4)n3)CC2)cc1 [compound 9, reference compound]
solubility at 4 h [6, 9]: 3.92 µM (≈ 1.61 µg/mL)
solubility at 4 h [6, 10]: 6.03 µM (≈ 2.48 µg/mL)
solubility in the culture medium [7]: insoluble
cytotoxic activity at screening concentration [7]: inactive

CC[C@]1(O)C[C@H]2CN(CCc3c([nH]c4ccccc34)[C@@](C(=O)OC)(c3cc4c(cc3OC)N(C=O)[C@H]3[C@@](O)(C(=O)OC)[C@H](OC(C)=O)[C@]5(CC)C=CCN6CC[C@]43[C@@H]65)C2)C1 [Vincristine, vincristine]
action on the cell cycle ([8]; 5 µM): increased arrest in the G2/M phase

c1ccc(N2CCN(c3nc(N4CCNCC4)nc(N4CCOCC4)n3)CC2)cc1 [5c]
CC50 [1]: 92.3 µM
Emax [1]: 58%
CC50 [2]: 25.6 µM
Emax [2]: 85%
CC50 [3]: > 100 µM
Emax [3]: 57%
solubility at 4 h [6, 9]: 43.4 µM (≈ 17.8 µg/mL)
solubility at 4 h [6, 10]: 59.1 µM (≈ 24.3 µg/mL)
cytotoxic effect on leukemia cell lines at single concentration [7]: cytotoxic effect
CC50 [4]: 37.3 µM
Emax [4]: 94%
CC50 [5]: 31.8 µM
Emax [5]: 93%

c1ccc(N2CCN(c3nc(N4CCCCC4)nc(N4CCOCC4)n3)CC2)cc1 [5b, 4-(4-(4-Phenylpiperazin-1-yl)-6-(piperidin-1-yl)-1,3,5-triazin-2-yl)morpholine]
solubility at 4 h [6, 9]: 2.84 µM (≈ 1.16 µg/mL)
solubility at 4 h [6, 10]: 0.51 µM (≈ 0.209 µg/mL)
solubility in the culture medium [7]: insoluble
cytotoxic activity at screening concentration [7]: inactive

CN1CCN(c2nc(N3CCOCC3)nc(N3CCN(c4ccccc4)CC3)n2)CC1 [5d, 4-(4-(4-Methylpiperazin-1-yl)-6-(4-phenylpiperazin-1-yl)-1,3,5-triazin-2-yl)morpholine]
melting point: 135 °C
CC50 [1]: 91.3 µM
Emax [1]: 72%
CC50 [2]: 50.2 µM
Emax [2]: 80%
CC50 [3]: > 100 µM
Emax [3]: 77%
solubility at 4 h [6, 9]: 30.7 µM (≈ 13 µg/mL)
solubility at 4 h [6, 10]: 50.9 µM (≈ 21.6 µg/mL)
cytotoxic effect on leukemia cell lines at single concentration [7]: cytotoxic effect
CC50 [4]: 66.5 µM
Emax [4]: 95%
CC50 [5]: 64.1 µM
Emax [5]: 91%
